#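 How tested: cells in 96-well plates exposed to compound for 48 hours at five concentrations. GI50 is the concentration that inhibits growth by half. TGI: concentration producing complete growth inhibition.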
# Tests used:
# Test in all cases: NCI-60 cell line screen, 48 h
# [1] = system: SK-MEL-28 melanoma
# [2] = system: MDA-MB-435
# [3] = system: SW-620 colon
# [4] = system: LOX IMVI melanoma
# [5] = system: U251 CNS
# [6] = system: UACC-62 melanoma
# [7] = system: A498 renal
# [8] = system: SNB-75 CNS
# [9] = system: T-47D breast
# [10] = system: MDA-MB-468 breast
# [11] = system: SN12C renal
# [12] = system: BT-549 breast
# [13] = system: HS 578T breast
# [14] = system: MDA-MB-231 breast
# [15] = system: OVCAR-5 ovarian
# [16] = system: SK-MEL-5 melanoma
# [17] = system: SF-539 CNS
# [18] = system: SF-295 CNS
# [19] = system: IGROV1 ovarian
# [20] = system: SNB-19 CNS
# [21] = system: PC-3 prostate
# [22] = system: NCI-H522 lung
# [23] = system: SR leukemia
# [24] = system: DU-145 prostate
# [25] = system: SF-268 CNS
# [26] = system: NCI/ADR-RES ovarian
# [27] = system: MOLT-4 leukemia
# [28] = system: SK-MEL-2 melanoma
# [29] = system: NCI-H23 lung
# [30] = system: NCI-H460 lung
# [31] = system: EKVX NSCLC
# [32] = system: 786-0 renal
# [33] = system: NCI-H226 lung
# [34] = system: UACC-257 melanoma
# [35] = system: K-562 leukemia
# [36] = system: OVCAR-4 ovarian
# [37] = system: KM12 colon
# [38] = system: M14 melanoma
# [39] = system: CAKI-1 renal
# [40] = system: ACHN renal
# [41] = system: HL-60(TB) leukemia
# [42] = system: TK-10 renal
# [43] = system: HOP-92 NSCLC
# [44] = system: HCC-2998 colon
# [45] = system: SK-OV-3 ovarian
# [46] = system: UO-31 renal
# [47] = system: CCRF-CEM leukemia
# [48] = system: MALME-3M melanoma
# [49] = system: HOP-62 NSCLC
smiles,measurement,setting,value
C=C(C)[C@@H]1CC[C@]2(C)[C@H](CC=C3[C@@H]4CC(C)(C)CC[C@]4(C(=O)N4CCOCC4)CC[C@]32C)[C@@]1(C)CCCN,GI50,[1],1240 nM
same,TGI,[1],2280 nM
same,GI50,[2],1220 nM
same,TGI,[2],2310 nM
same,GI50,[3],1190 nM
same,TGI,[3],2270 nM
same,GI50,[4],1250 nM
same,TGI,[4],2260 nM
same,GI50,[5],1280 nM
same,TGI,[5],2390 nM
same,GI50,[6],1560 nM
same,TGI,[6],3560 nM
same,GI50,[7],1410 nM
same,TGI,[7],3100 nM
same,GI50,[8],2000 nM
same,TGI,[8],7890 nM
same,GI50,[9],1860 nM
same,TGI,[9],4700 nM
same,GI50,[10],1200 nM
same,TGI,[10],2330 nM
same,GI50,[11],1290 nM
same,TGI,[11],2440 nM
same,GI50,[12],9160 nM
same,TGI,[12],24000 nM
same,GI50,[13],1400 nM
same,TGI,[13],2990 nM
same,GI50,[14],1370 nM
same,TGI,[14],2430 nM
same,GI50,[15],1380 nM
same,TGI,[15],2690 nM
same,GI50,[16],1560 nM
same,TGI,[16],3470 nM
same,GI50,[17],1260 nM
same,TGI,[17],2280 nM
same,GI50,[18],1300 nM
same,TGI,[18],2400 nM
same,GI50,[19],1560 nM
same,TGI,[19],2990 nM
same,GI50,[20],2120 nM
same,TGI,[20],6820 nM
same,GI50,[21],1490 nM
same,TGI,[21],3870 nM
same,GI50,[22],1340 nM
same,TGI,[22],2550 nM
same,GI50,[23],407 nM
same,TGI,[23],3090 nM
same,GI50,[24],1500 nM
same,TGI,[24],2960 nM
same,GI50,[25],1980 nM
same,TGI,[25],6220 nM
same,GI50,[26],1440 nM
same,TGI,[26],2770 nM
same,GI50,[27],1730 nM
same,TGI,[27],4620 nM
same,GI50,[28],1430 nM
same,TGI,[28],2960 nM
same,GI50,[29],1310 nM
same,TGI,[29],2450 nM
same,GI50,[30],1190 nM
same,TGI,[30],2250 nM
same,GI50,[31],1370 nM
same,TGI,[31],2880 nM
same,GI50,[32],1180 nM
same,TGI,[32],2340 nM
same,GI50,[33],2780 nM
same,TGI,[33],16500 nM
same,GI50,[34],1290 nM
same,TGI,[34],2610 nM
same,GI50,[35],1960 nM
same,TGI,[35],73500 nM
same,GI50,[36],1380 nM
same,TGI,[36],2690 nM
same,GI50,[37],1350 nM
same,TGI,[37],2600 nM
same,GI50,[38],1430 nM
same,TGI,[38],3250 nM
same,GI50,[39],1230 nM
same,TGI,[39],2250 nM
same,GI50,[40],1340 nM
same,TGI,[40],2400 nM
same,GI50,[41],1000 nM
same,TGI,[41],3320 nM
same,GI50,[42],1640 nM
same,TGI,[42],4360 nM
same,GI50,[43],1250 nM
same,TGI,[43],2710 nM
same,GI50,[44],1220 nM
same,TGI,[44],2250 nM
same,GI50,[45],7350 nM
same,TGI,[45],21300 nM
same,GI50,[46],1350 nM
same,TGI,[46],3200 nM
same,GI50,[47],1330 nM
same,TGI,[47],3680 nM
same,GI50,[48],1310 nM
same,TGI,[48],2380 nM
same,GI50,[49],1390 nM
same,TGI,[49],2830 nM

# Source: PubChem BioAssay (NCI)
